In patent US10399974B2, “N2-phenyl-pyrido[3,4-D]pyrimidine-2, 8-diamine derivatives and their use as Mps1 inhibitors” (Cancer Research Technology Limited, priority 2014, dated 2019):

Target: full length MPS1 (Homo sapiens (Human), UniProt P33981)
Assay: Measurement of Inhibition of MPS1 Kinase
Assay type: biochemical
Settings: full length MPS1 12.5 nM or 3 nM, H236 peptide 5 μM, ATP 10 μM, 60 min at room temperature, Caliper EZ reader II; read-out: MPS1 IC50
Procedure: Measurement of Inhibition of MPS1 Kinase
(5 μM), ATP (10 μM), either DMSO (1% v/v) or the test compound (in the range 0.25 nM-100 μM in 1% DMSO) and assay buffer (50 mM HEPES (pH 7.0), 0.02% NaN3, 0.01% BSA, 0.1 mM Orthovandate, […], 1 μM DTT, Roche protease inhibitor). The reaction was carried out for 60 min at room temperature and stopped by the addition of buffer (10 μl) containing 20 mM EDTA, 0.05% (v/v) Brij-35, in 0.1M HEPES-buffered saline (Free acid, Sigma, UK). The plate was read on a Caliper EZ reader II (Caliper Life Sciences).
The reader provides a Software package (‘Reviewer’) which converts the peak heights into % conversion by measuring both product and substrate peak and also allows selection of control well which represent 0% and 100% inhibition, respectively. The % inhibition of the compounds is calculated relative to the means of selected control wells. IC50s are determined by testing the compounds at a range of concentrations from 0.25 nM-100 μM. The % inhibitions at each concentration are then fitted to a 4 parameter logistic fit: y=(a+((b−a)/(1+((c/x^d)))) where a=asym min, b=asym max, c=IC50 and d=hill coefficient

Sequence of full length MPS1 (P33981 whole entry): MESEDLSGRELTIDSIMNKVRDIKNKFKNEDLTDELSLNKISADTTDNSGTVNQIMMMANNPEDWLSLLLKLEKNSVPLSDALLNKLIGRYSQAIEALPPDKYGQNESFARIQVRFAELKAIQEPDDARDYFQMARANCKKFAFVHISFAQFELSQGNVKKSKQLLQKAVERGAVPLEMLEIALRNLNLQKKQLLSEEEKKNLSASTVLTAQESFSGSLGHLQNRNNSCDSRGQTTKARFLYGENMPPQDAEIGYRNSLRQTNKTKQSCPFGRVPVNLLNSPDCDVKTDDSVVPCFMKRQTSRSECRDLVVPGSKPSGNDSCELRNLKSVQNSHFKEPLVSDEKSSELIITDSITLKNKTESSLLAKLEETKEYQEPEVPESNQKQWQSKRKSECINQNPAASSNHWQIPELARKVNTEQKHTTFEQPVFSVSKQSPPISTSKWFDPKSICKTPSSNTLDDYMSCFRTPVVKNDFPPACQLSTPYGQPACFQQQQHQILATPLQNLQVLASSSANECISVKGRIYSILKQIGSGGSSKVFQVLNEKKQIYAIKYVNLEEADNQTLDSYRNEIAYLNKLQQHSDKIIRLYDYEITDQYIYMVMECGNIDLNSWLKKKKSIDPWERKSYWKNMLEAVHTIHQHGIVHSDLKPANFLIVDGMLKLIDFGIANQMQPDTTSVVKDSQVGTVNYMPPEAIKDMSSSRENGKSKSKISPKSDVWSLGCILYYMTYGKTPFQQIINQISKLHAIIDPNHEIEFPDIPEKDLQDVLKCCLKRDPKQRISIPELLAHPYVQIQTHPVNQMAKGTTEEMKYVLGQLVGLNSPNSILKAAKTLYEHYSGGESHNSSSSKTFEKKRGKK

Row | IC50 [nM] | Compound
1 | 6 | CCOc1cc(-c2nncn2C)ccc1Nc1ncc2cc(C)nc(N3CCCC(OC)C3)c2n1 (racemic) [Example 47, Racemic-N-(2-ethoxy-4-(4-methyl-4H-1,2,4-triazol-3-yl)phenyl)-8-(3-methoxypiperidin-1-yl)-6-methylpyrido[3,4-d]pyrimidin-2-amine]
2 | 3 | CCOc1cc(-c2nncn2C)ccc1Nc1ncc2cc(C)nc(N3CCOC(C)C3)c2n1 (racemic) [Example 48, Racemic-N-(2-ethoxy-4-(4-methyl-4H-1,2,4-triazol-3-yl)phenyl)-6-methyl-8-(2-methylmorpholino)pyrido[3,4-d]pyrimidin-2-amine]
3 | 5 | COc1cc(-c2cnc(C)n2C)ccc1Nc1ncc2cc(C)nc(N3CC(C)(C)C3)c2n1 [Example 19, N-(4-(1,2-dimethyl-1H-imidazol-5-yl)-2-methoxyphenyl)-8-(3,3-dimethylazetidin-1-yl)-6-methylpyrido[3,4-d]pyrimidin-2-amine]
4 | 12 | COc1cc(-c2cnc(C)n2C)ccc1Nc1ncc2cc(C)nc(N3CC4(CCOCC4)C3)c2n1 [Example 20, N-(4-(1,2-dimethyl-1H-imidazol-5-yl)-2-methoxyphenyl)-6-methyl-8-(7-oxa-2-azaspiro[3.5]nonan-2-yl)pyrido[3,4-d]pyrimidin-2-amine]
5 | 1 | COc1cc(-c2nnc(C)n2C)ccc1Nc1ncc2cc(C)nc(NCC(C)(C)C)c2n1 [Example 21, N2-(4-(4,5-dimethyl-4H-1,2,4-triazol-3-yl)-2-methoxyphenyl)-6-methyl-N8-neopentylpyrido[3,4-d]pyrimidine-2,8-diamine]
6 | 20 | CCOc1cc(-c2nnc(C)n2C)ccc1Nc1ncc2cc(C)nc(N3CC(C)(C)C3)c2n1 [Example 22, N-(4-(4,5-dimethyl-4H-1,2,4-triazol-3-yl)-2-ethoxyphenyl)-8-(3,3-dimethylazetidin-1-yl)-6-methylpyrido[3,4-d]pyrimidin-2-amine]
7 | 4 | CCOc1cc(-c2nnc(C)n2C)ccc1Nc1ncc2cc(C)nc(N3CC4(CCOCC4)C3)c2n1 [Example 23, N-(4-(4,5-dimethyl-4H-1,2,4-triazol-3-yl)-2-ethoxyphenyl)-6-methyl-8-(7-oxa-2-azaspiro[3.5]nonan-2-yl)pyrido[3,4-d]pyrimidin-2-amine]
8 | 2 | CCOc1cc(-c2nncn2CC)ccc1Nc1ncc2cc(C)nc(N3CC4(CCOCC4)C3)c2n1 [Example 24, N-(2-ethoxy-4-(4-ethyl-4H-1,2,4-triazol-3-yl)phenyl)-6-methyl-8-(7-oxa-2-azaspiro[3.5]nonan-2-yl)pyrido[3,4-d]pyrimidin-2-amine]
9 | 6 | CCOc1cc(-c2nncn2CC)ccc1Nc1ncc2cc(C)nc(N3CC(C)(C)C3)c2n1 [Example 25, 8-(3,3-dimethylazetidin-1-yl)-N-(2-ethoxy-4-(4-ethyl-4H-1,2,4-triazol-3-yl)phenyl)-6-methylpyrido[3,4-d]pyrimidin-2-amine]
10 | 6 | CCOc1cc(-c2nncn2CC)ccc1Nc1ncc2cc(C)nc(NCC(C)(C)C)c2n1 [Example 26, N2-(2-ethoxy-4-(4-ethyl-4H-1,2,4-triazol-3-yl)phenyl)-6-methyl-N8-neopentylpyrido[3,4-d]pyrimidine-2,8-diamine]
11 | 4 | CCOc1cc(-c2nncn2C)ccc1Nc1ncc2cc(C)nc(N3CCC4(CCOC4)C3)c2n1 (centres unmarked) [Example 27, N-(2-ethoxy-4-(4-methyl-4H-1,2,4-triazol-3-yl)phenyl)-6-methyl-8-(2-oxa-7-azaspiro[4.4]nonan-7-yl)pyrido[3,4-d]pyrimidin-2-amine]
12 | 2 | CCOc1cc(-c2nncn2C)ccc1Nc1ncc2cc(C)nc(N3CCC(C)(C#N)CC3)c2n1 [Example 28, 1-(2-((2-ethoxy-4-(4-methyl-4H-1,2,4-triazol-3-yl)phenyl)amino)-6-methylpyrido[3,4-d]pyrimidin-8-yl)-4-methylpiperidine-4-carbonitrile]

Further lines, the compound ahead of its results:

Row | Compound | IC50 [nM]
13 | COc1cc(-c2cnnn2C)ccc1Nc1ncc2cc(C)nc(NCC(C)(C)C)c2n1 [Example 1, N2-(2-methoxy-4-(1-methyl-1H-1,2,3-triazol-5-yl)phenyl)-6-methyl-N8-neopentylpyrido[3,4-d]pyrimidine-2,8-diamine] | 0.5
14 | CCOc1cc(-c2nncn2C)ccc1Nc1ncc2cc(C)nc(NCC3(C)CCOC3)c2n1 (centres unmarked) [Example 2, N2-(2-ethoxy-4-(4-methyl-4H-1,2,4-triazol-3-yl)phenyl)-6-methyl-N8-((3-methyltetrahydrofuran-3-yl)methyl)pyrido[3,4-d]pyrimidine-2,8-diamine] | 2
15 | CCOc1cc(-c2nncn2C)ccc1Nc1ncc2cc(C)nc(N3CC(C)(C#N)C3)c2n1 [Example 3, 1-(2-((2-ethoxy-4-(4-methyl-4H-1,2,4-triazol-3-yl)phenyl)amino)-6-methylpyrido[3,4-d]pyrimidin-8-yl)-3-methylazetidine-3-carbonitrile] | 3
16 | CCOc1cc(-c2nncn2C)ccc1Nc1ncc2cc(C)nc(N3CC4(CCOCC4)C3)c2n1 [Example 4, N-(2-ethoxy-4-(4-methyl-4H-1,2,4-triazol-3-yl)phenyl)-6-methyl-8-(7-oxa-2-azaspiro[3.5]nonan-2-yl)pyrido[3,4-d]pyrimidin-2-amine] | 2
17 | CCOc1cc(-c2nncn2C)ccc1Nc1ncc2cc(C)nc(N3CCC(C#N)CC3)c2n1 [Example 5, 1-(2-((2-ethoxy-4-(4-methyl-4H-1,2,4-triazol-3-yl)phenyl)amino)-6-methylpyrido[3,4-d]pyrimidin-8-yl)piperidine-4-carbonitrile] | 3
18 | CCOc1cc(-c2nncn2C)ccc1Nc1ncc2cc(C)nc(NC3CCOCC3)c2n1 [Example 6, N2-(2-ethoxy-4-(4-methyl-4H-1,2,4-triazol-3-yl)phenyl)-6-methyl-N8-(tetrahydro-2H-pyran-4-yl)pyrido[3,4-d]pyrimidine-2,8-diamine] | 5
19 | CCOc1cc(-c2nnc(C)n2C)ccc1Nc1ncc2cc(C)nc(NCC(C)(C)C)c2n1 [Example 7, N2-(4-(4,5-dimethyl-4H-1,2,4-triazol-3-yl)-2-ethoxyphenyl)-6-methyl-N8-neopentylpyrido[3,4-d]pyrimidine-2,8-diamine] | 4
20 | CCOc1cc(-c2nncn2C)ccc1Nc1ncc2cc(C)nc(NCC3(O)CCC3)c2n1 [Example 8, 1-(((2-((2-ethoxy-4-(4-methyl-4H-1,2,4-triazol-3-yl)phenyl)amino)-6-methylpyrido[3,4-d]pyrimidin-8-yl)amino)methyl)cyclobutanol] | 3
21 | CCOc1cc(-c2nncn2C)ccc1Nc1ncc2cc(C)nc(N3CC(C)(O)C3)c2n1 [Example 9, 1-(2-((2-ethoxy-4-(4-methyl-4H-1,2,4-triazol-3-yl)phenyl)amino)-6-methylpyrido[3,4-d]pyrimidin-8-yl)-3-methylazetidin-3-ol] | 4
22 | COc1cc(-c2ccn(C)n2)ccc1Nc1ncc2cc(C)nc(NCC(C)(C)C)c2n1 [Example 11, N2-(2-methoxy-4-(1-methyl-1H-pyrazol-3-yl)phenyl)-6-methyl-N8-neopentylpyrido[3,4-d]pyrimidine-2,8-diamine] | 36
23 | COc1cc(-c2nccn2C)ccc1Nc1ncc2cc(C)nc(NCC(C)(C)C)c2n1 [Example 12, N2-(2-methoxy-4-(1-methyl-1H-imidazol-2-yl)phenyl)-6-methyl-N8-neopentylpyrido[3,4-d]pyrimidine-2,8-diamine] | 4
24 | COc1cc(-c2ccnn2C)ccc1Nc1ncc2cc(C)nc(NCC(C)(C)C)c2n1 [Example 13, N2-(2-methoxy-4-(1-methyl-1H-pyrazol-5-yl)phenyl)-6-methyl-N8-neopentylpyrido[3,4-d]pyrimidine-2,8-diamine] | 18
25 | COc1cc(-c2ncco2)ccc1Nc1ncc2cc(C)nc(NCC(C)(C)C)c2n1 [Example 14, N2-(2-methoxy-4-(oxazol-2-yl)phenyl)-6-methyl-N8-neopentylpyrido[3,4-d]pyrimidine-2,8-diamine] | 59
26 | Cc1cc2cnc(Nc3ccc(-c4nncn4C)cc3OC(F)F)nc2c(NCC(C)(C)C)n1 [Example 15, N2-(2-(difluoromethoxy)-4-(4-methyl-4H-1,2,4-triazol-3-yl)phenyl)-6-methyl-N8-neopentylpyrido[3,4-d]pyrimidine-2,8-diamine] | 1
27 | COc1cc(-c2nnnn2C)ccc1Nc1ncc2cc(C)nc(NCC(C)(C)C)c2n1 [Example 16, N2-(2-methoxy-4-(1-methyl-1H-tetrazol-5-yl)phenyl)-6-methyl-N8-neopentylpyrido[3,4-d]pyrimidine-2,8-diamine] | 5
28 | COc1cc(-c2oc(C)nc2C)ccc1Nc1ncc2cc(C)nc(NCC(C)(C)C)c2n1 [Example 17, N2-(4-(2,4-dimethyloxazol-5-yl)-2-methoxyphenyl)-6-methyl-N8-neopentylpyrido[3,4-d]pyrimidine-2,8-diamine] | 43
29 | COc1cc(-c2ncc(C)n2C)ccc1Nc1ncc2cc(C)nc(NCC(C)(C)C)c2n1 [Example 18, N2-(4-(1,5-dimethyl-1H-imidazol-2-yl)-2-methoxyphenyl)-6-methyl-N8-neopentylpyrido[3,4-d]pyrimidine-2,8-diamine] | 4
